*1 amine or outer side, *2 acyl side, *3 side chain or, on linkers, in order; H or OH if unused. Where a SMILES comes first, the peptide text is derived from it. Side-chain parts run from the residue outwards. [ ]: non-standard residue; d: D form. The star is where a group is joined. C20 diacid = O=C(O)CCCCCCCCCCCCCCCCCCC(=O)*; γGlu = O=C(O)[C@H](CCC(=O)[*:2])N[*:1]; AEEA = NCCOCCOCC(=O)O; Aib = CC(C)(N)C(=O)O Where only a bound is given, the exact number is not on record here.

The values that follow come from patent US12723063B2, “GIPR-agonist compounds” (Eli Lilly and Company, priority 2019, dated 2026).

Assay [1] has as its target T1, human GIPR (Homo sapiens, UniProt P48546).
T1 construct: expressed in transfected cells; crude membranes
T1 sequence (P48546 22-466): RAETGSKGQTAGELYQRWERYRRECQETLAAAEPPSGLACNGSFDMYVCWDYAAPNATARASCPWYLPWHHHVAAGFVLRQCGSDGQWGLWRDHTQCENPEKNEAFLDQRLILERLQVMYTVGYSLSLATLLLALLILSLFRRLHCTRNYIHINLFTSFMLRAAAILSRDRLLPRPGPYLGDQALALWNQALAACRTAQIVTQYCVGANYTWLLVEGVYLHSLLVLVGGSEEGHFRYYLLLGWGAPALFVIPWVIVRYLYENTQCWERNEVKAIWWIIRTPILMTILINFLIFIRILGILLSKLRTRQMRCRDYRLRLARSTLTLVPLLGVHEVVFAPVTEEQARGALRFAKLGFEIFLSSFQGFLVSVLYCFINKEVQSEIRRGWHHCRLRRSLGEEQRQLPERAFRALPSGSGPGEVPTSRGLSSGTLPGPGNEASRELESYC
In words: [125I]-GIP binding, SPA with WGA beads, 0.1% bacitracin. Particulars: geometric mean, read-out: hGIPR Ki. As to the method:
(§1) Stably transfected cell lines are prepared by subcloning receptor cDNA into a pcDNA3 expression plasmid and transfected into human embryonic kidney (HEK) 293 (hGcgR and hGLP-1R) or Chinese Hamster Ovary (CHO) (hGIPR) cells followed by selection with Geneticin (hGLP-1R and hGIPR) or hygromycin B (hGcgR).
(§2) Two methods are used for the preparation of crude cell membranes.
(§3) Method 1: Frozen cell pellets are lysed on ice in hypotonic buffer containing 50 mM Tris HCl, pH 7.5, and Roche Complete™ Protease Inhibitors with EDTA. The cell suspension is disrupted using a glass Potter-Elvehjem homogenizer fitted with a Teflon® pestle for 25 strokes. The homogenate is centrifuged at 4° C. at 1100× g for 10 minutes. The supernatant is collected and stored on ice while the pellets are resuspended in homogenization buffer and rehomogenized as described above. The homogenate is centrifuged at 1100× g for 10 minutes. The second supernatant is combined with the first supernatant and centrifuged at 35000× g for 1 hour at 4° C. The resulting membrane pellet is resuspended in homogenization buffer containing protease inhibitors at approximately 1 to 3 mg/mL, quick frozen in liquid nitrogen and stored as aliquots in a −80° C. freezer until use.
(§4) Method 2: Frozen cell pellets are lysed on ice in hypotonic buffer containing 50 mM Tris HCl, pH 7.5, 1 mM MgCl2, Roche Complete™ EDTA-free Protease Inhibitors and 25 units/mL DNAse I (Invitrogen). The cell suspension is disrupted using a glass Potter-Elvehjem homogenizer fitted with a Teflon® pestle for 20 to 25 strokes. The homogenate is centrifuged at 4° C. at 1800× g for 15 minutes. The supernatant is collected and stored on ice while the pellets are resuspended in homogenization buffer (without DNAse I) and rehomogenized as described above. The homogenate is centrifuged at 1800× g for 15 minutes. The second supernatant is combined with the first supernatant and centrifuged an additional time at 1800× g for 15 minutes. The overall supernatant is then centrifuged at 25000× g for 30 minutes at 4° C. The resulting membrane pellet is resuspended in homogenization buffer (without DNAse I) containing protease inhibitors at approximately 1 to 3 mg/mL and stored as aliquots in a −80° C. freezer until use.
The binding buffer contains 25 mM HEPES, pH 7.4, 2.5 mM CaCl2), 1 mM MgCl2, 0.1% (w/v) bacitracin, 0.003% (w/v) TWEEN®-20, and Roche Complete™ Protease Inhibitors without EDTA. […] Plates are sealed and mixed on a plate shaker (setting 6) for 1 minute and read with a PerkinElmer Trilux MicroBeta® scintillation counter after 2.5 to 12 hours of incubation/settling time at room temperature.
(§5) Data are analyzed using four-parameter (curve maximum, curve minimum, IC50, Hill slope) nonlinear regression routines (Genedata Screener, version 12.0.4, Genedata AG, Basal, Switzerland). […] Values for Ki are reported as the geometric mean, with error expressed as the standard error of the mean (SEM) and n is equal to the number of independent replicates (determined in assays performed on different days). […] SEM is only calculated when […] or greater. Means are expressed as geometric means with the standard error of the mean (SEM) and the number of replicates (n) indicated in parentheses.

Assay [2] has as its target T2, human GLP-1R (Homo sapiens, UniProt P43220).
T2 construct: expressed in transfected cells; crude membranes
The experiment in a line: [125I]-GLP-1 binding, SPA with WGA beads, 0.1% bacitracin. Particulars: geometric mean, read-out: hGLP1R Ki. As to the method: as §1, §2, §3, §4
The binding buffer contains 25 mM HEPES, pH 7.4, 2.5 mM CaCl2), 1 mM MgCl2, 0.1% (w/v) bacitracin, 0.003% (w/v) TWEEN®-20, and Roche Complete™ Protease Inhibitors without EDTA.
as §5

Assay [3] deals with T3, human GcgR (Homo sapiens, UniProt P47871).
T3 construct: expressed in transfected cells; crude membranes
The experiment in a line: [125I]-Glucagon binding, SPA with WGA beads, 0.1% bacitracin. As to conditions: geometric mean, read-out: hGcgR Ki. As to the method: as §1, §2, §3, §4
The human Geg receptor binding assays are performed using a Scintillation Proximity Assay (SPA) format with wheat germ agglutinin (WGA) beads (Perkin Elmer). The binding buffer contains 25 mM 4-(2-hydroxyethyl)-1-piperazineethanesulfonic acid (HEPES), pH 7.4, 2.5 mM CaCl2), 1 mM MgCl2, 0.1% (w/v) bacitracin (Research Products), 0.003% (w/v) Polyoxyethylenesorbitan monolaurate (TWEEN®-20), and Roche Complete™ Protease Inhibitors without EDTA. Peptides and Gcg are thawed and 3-fold serially diluted in 100% DMSO (10 point concentration response curves). Next, 5 μL serially diluted compound or DMSO is transferred into Corning® 3632 clear bottom assay plates containing 45 μL assay binding buffer or unlabeled Gcg control (non-specific binding or NSB, at 1 μM final). […] Plates are sealed and mixed on a plate shaker (setting 6) for 1 minute and read with a PerkinElmer Trilux MicroBeta® scintillation counter after 12 hours of incubation/settling time at room temperature.
as §5

T3 sequence (P47871 26-477): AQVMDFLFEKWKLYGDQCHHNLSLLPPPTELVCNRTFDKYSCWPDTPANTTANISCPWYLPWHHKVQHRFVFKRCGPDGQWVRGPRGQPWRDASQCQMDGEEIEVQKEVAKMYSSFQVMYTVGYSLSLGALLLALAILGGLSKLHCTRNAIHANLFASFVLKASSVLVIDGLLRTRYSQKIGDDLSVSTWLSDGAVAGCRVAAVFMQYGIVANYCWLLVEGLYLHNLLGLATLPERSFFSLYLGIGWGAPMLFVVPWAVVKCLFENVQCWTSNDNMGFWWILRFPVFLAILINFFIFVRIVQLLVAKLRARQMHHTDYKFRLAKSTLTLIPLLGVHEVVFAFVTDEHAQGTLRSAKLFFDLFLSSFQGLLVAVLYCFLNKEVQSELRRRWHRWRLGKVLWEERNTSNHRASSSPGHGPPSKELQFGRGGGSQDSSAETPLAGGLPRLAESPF
T2 sequence (P43220 24-463): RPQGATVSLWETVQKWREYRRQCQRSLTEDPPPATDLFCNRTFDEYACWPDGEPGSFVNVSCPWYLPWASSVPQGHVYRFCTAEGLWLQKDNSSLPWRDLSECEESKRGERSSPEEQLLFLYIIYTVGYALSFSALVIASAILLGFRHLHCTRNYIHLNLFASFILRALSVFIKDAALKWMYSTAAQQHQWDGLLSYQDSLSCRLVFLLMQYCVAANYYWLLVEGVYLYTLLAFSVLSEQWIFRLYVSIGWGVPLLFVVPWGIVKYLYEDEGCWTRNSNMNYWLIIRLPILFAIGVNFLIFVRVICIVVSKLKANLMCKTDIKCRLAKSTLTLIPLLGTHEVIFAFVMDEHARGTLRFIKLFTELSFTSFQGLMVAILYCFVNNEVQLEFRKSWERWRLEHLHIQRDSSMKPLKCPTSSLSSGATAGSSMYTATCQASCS

The Ki is a measure of affinity in units of concentration, obtained from inhibition or displacement. In the case of `CC[C@H](C)[C@H](NC(=O)[C@H](CO)NC(=O)[C@H](Cc1ccc(O)cc1)NC(=O)[C@H](CC(=O)O)NC(=O)[C@H](CO)NC(=O)[C@@H](NC(=O)[C@H](Cc1ccccc1)NC(=O)[C@@H](NC(=O)CNC(=O)[C@H](CCC(=O)O)NC(=O)C(C)(C)NC(=O)[C@@H](N)Cc1ccc(O)cc1)[C@@H](C)O)[C@@H](C)CC)C(=O)N[C@@H](CC(C)C)C(=O)N[C@@H](CC(C)C)C(=O)N[C@@H](CC(=O)O)C(=O)N[C@@H](CCCCN)C(=O)N[C@@H](CCCCNC(=O)COCCOCCNC(=O)COCCOCCNC(=O)CC[C@H](NC(=O)CCCCCCCCCCCCCCCCCCC(=O)O)C(=O)O)C(=O)N[C@@H](C)C(=O)N[C@@H](CCC(N)=O)C(=O)NC(C)(C)C(=O)N[C@@H](CC(=O)O)C(=O)N[C@@H](Cc1ccccc1)C(=O)N[C@H](C(=O)N[C@@H](CC(N)=O)C(=O)N[C@@H](Cc1c[nH]c2ccccc12)C(=O)N[C@@H](CC(C)C)C(=O)N[C@@H](CC(C)C)C(=O)N[C@@H](C)C(=O)N[C@@H](CCC(N)=O)C(=O)NCC(=O)N1CCC[C@H]1C(=O)N[C@@H](CO)C(=O)N[C@@H](CO)C(=O)NCC(=O)N[C@@H](C)C(=O)N1CCC[C@H]1C(=O)N1CCC[C@H]1C(=O)N1CCC[C@H]1C(=O)N[C@@H](CO)C(N)=O)C(C)C` [Example 8] (H-Y[Aib]EGTFISDYSILLDKK([AEEA-AEEA-γGlu-C20 diacid])AQ[Aib]DFVNWLLAQGPSSGAPPPS-NH2), the Ki in assay [1] stood at 0.027 nM; in assay [2] it was 38.1 nM; in assay [3] it was 101 nM.
Regarding `CC[C@H](C)[C@H](NC(=O)[C@H](CO)NC(=O)[C@H](Cc1ccc(O)cc1)NC(=O)[C@H](CC(=O)O)NC(=O)[C@H](CO)NC(=O)[C@@H](NC(=O)[C@H](Cc1ccccc1)NC(=O)[C@@H](NC(=O)CNC(=O)[C@H](CCC(=O)O)NC(=O)[C@@H](C)NC(=O)[C@@H](N)Cc1ccc(O)cc1)[C@@H](C)O)[C@@H](C)CC)C(=O)N[C@@H](CC(C)C)C(=O)N[C@@H](CC(C)C)C(=O)N[C@@H](CC(=O)O)C(=O)N[C@@H](CCCCN)C(=O)N[C@@H](CCCCNC(=O)COCCOCCNC(=O)COCCOCCNC(=O)CC[C@H](NC(=O)CCCCCCCCCCCCCCCCCCC(=O)O)C(=O)O)C(=O)N[C@@H](Cc1c[nH]cn1)C(=O)N[C@@H](CCC(N)=O)C(=O)NC(C)(C)C(=O)N[C@@H](CC(=O)O)C(=O)N[C@@H](Cc1ccccc1)C(=O)N[C@H](C(=O)N[C@@H](CC(N)=O)C(=O)N[C@@H](Cc1c[nH]c2ccccc12)C(=O)N[C@@H](CC(C)C)C(=O)N[C@@H](CC(C)C)C(=O)N[C@@H](C)C(=O)N[C@@H](CCC(N)=O)C(=O)NCC(=O)N1CCC[C@H]1C(=O)N[C@@H](CO)C(=O)N[C@@H](CO)C(=O)NCC(=O)N[C@@H](C)C(=O)N1CCC[C@H]1C(=O)N1CCC[C@H]1C(=O)N1CCC[C@H]1C(=O)N[C@@H](CO)C(N)=O)C(C)C` [Example 9] (H-Y[dA]EGTFISDYSILLDKK([AEEA-AEEA-γGlu-C20 diacid])HQ[Aib]DFVNWLLAQGPSSGAPPPS-NH2), the figures for the Ki in assay [1], in assay [2] and in assay [3] were 0.11 nM, 168 nM and greater than 230 nM, respectively.
The matching figures for `CC[C@H](C)[C@H](NC(=O)[C@H](CO)NC(=O)[C@H](Cc1ccc(O)cc1)NC(=O)[C@H](CC(=O)O)NC(=O)[C@H](CO)NC(=O)[C@@H](NC(=O)[C@H](Cc1ccccc1)NC(=O)[C@@H](NC(=O)CNC(=O)[C@H](CCC(=O)O)NC(=O)[C@@H](C)NC(=O)[C@@H](N)Cc1ccc(O)cc1)[C@@H](C)O)[C@@H](C)CC)C(=O)N[C@@H](CC(C)C)C(=O)N[C@@H](CC(C)C)C(=O)N[C@@H](CC(=O)O)C(=O)N[C@@H](CCCCN)C(=O)N[C@@H](CCCCNC(=O)COCCOCCNC(=O)COCCOCCNC(=O)CC[C@H](NC(=O)CCCCCCCCCCCCCCCCCCC(=O)O)C(=O)O)C(=O)N[C@@H](Cc1c[nH]cn1)C(=O)N[C@@H](CCC(N)=O)C(=O)N[C@@H](CCC(N)=O)C(=O)N[C@@H](CC(=O)O)C(=O)N[C@@H](Cc1ccccc1)C(=O)N[C@H](C(=O)N[C@@H](CC(N)=O)C(=O)N[C@@H](Cc1c[nH]c2ccccc12)C(=O)N[C@@H](CC(C)C)C(=O)N[C@@H](CC(C)C)C(=O)N[C@@H](C)C(=O)NCC(=O)NCC(=O)N1CCC[C@H]1C(=O)N[C@@H](CO)C(=O)N[C@@H](CO)C(=O)NCC(=O)N[C@@H](C)C(=O)N1CCC[C@H]1C(=O)N1CCC[C@H]1C(=O)N1CCC[C@H]1C(=O)N[C@@H](CO)C(N)=O)C(C)C` [Example 10] (H-Y[dA]EGTFISDYSILLDKK([AEEA-AEEA-γGlu-C20 diacid])HQQDFVNWLLAGGPSSGAPPPS-NH2): 0.159 nM, 60.7 nM and greater than 230 nM.
The like results for `CC[C@H](C)[C@H](NC(=O)[C@H](CO)NC(=O)[C@H](Cc1ccc(O)cc1)NC(=O)[C@H](CC(=O)O)NC(=O)[C@H](CO)NC(=O)[C@@H](NC(=O)[C@H](Cc1ccccc1)NC(=O)[C@@H](NC(=O)CNC(=O)[C@H](CCC(=O)O)NC(=O)[C@@H](C)NC(=O)[C@@H](N)Cc1ccc(O)cc1)[C@@H](C)O)[C@@H](C)CC)C(=O)N[C@@H](CC(C)C)C(=O)N[C@@H](CC(C)C)C(=O)N[C@@H](CC(=O)O)C(=O)N[C@@H](CCCCN)C(=O)N[C@@H](CCCCNC(=O)COCCOCCNC(=O)COCCOCCNC(=O)CC[C@H](NC(=O)CCCCCCCCCCCCCCCCCCC(=O)O)C(=O)O)C(=O)N[C@@H](C)C(=O)N[C@@H](CCC(N)=O)C(=O)N[C@@H](CCC(N)=O)C(=O)N[C@@H](CC(=O)O)C(=O)N[C@@H](Cc1ccccc1)C(=O)N[C@H](C(=O)N[C@@H](CC(N)=O)C(=O)N[C@@H](Cc1c[nH]c2ccccc12)C(=O)N[C@@H](CC(C)C)C(=O)N[C@@H](CC(C)C)C(=O)N[C@@H](C)C(=O)N[C@@H](CCC(N)=O)C(=O)NCC(=O)N1CCC[C@H]1C(=O)N[C@@H](CO)C(=O)N[C@@H](CO)C(=O)NCC(=O)N[C@@H](C)C(=O)N1CCC[C@H]1C(=O)N1CCC[C@H]1C(=O)N1CCC[C@H]1C(=O)N[C@@H](CO)C(N)=O)C(C)C` [Example 11] (H-Y[dA]EGTFISDYSILLDKK([AEEA-AEEA-γGlu-C20 diacid])AQQDFVNWLLAQGPSSGAPPPS-NH2) were, in that order, 0.0584 nM, 85.9 nM and 163 nM.
